Measurements reported in US20080027088A1, “Imidazole-Based Hmg-Coa Reductase Inhibitors” (Warner-Lambert Company, LLC, priority 2004, published 2008).

Test system: ApoE KO mice fed a Western diet
Test: Plasma and liver sphingomyelin by LC/MS, 4 weeks
Assay type: in vivo
Experimental: Animal experiments—Male C57BI/6J and ApoE KO mice on C57BI/6J background were obtained from the Jackson Laboratory (Bar Harbor, Me.) or Taconic (Germantown, N.Y.) (Plaque formation in ApoE KO mice is lipid-driven (A. S. Plump et al., Cell. 1992;71 (2):343-53)). Myriocin was mixed with Western diet containing 0.21% cholesterol and 21% fat. 8-12-week-old mice received 0.3 mg myriocin/kg/day for 12 weeks (Table 1). 10-12 week-old ApoE KO mice (n=8) were pre-fed a western diet for 2 weeks and mice received various concentrations of myriocin for 4 weeks in diet admix. Control groups consisted of ApoE KO mice fed normal chow or Western diet without myriocin, and normal chow-fed C57BI/6J mice. Body weight and chow feeding was measured every week to examine the food consumption. For the femoral artery cuff model, 8-10 week-old male ApoE KO mice were anethetized and the right femoral artery was dissected from its surroundings. […]
Analysis of Sphingolipids and Phospholipids by LC/MS and HPLC—Total lipids were extracted by the modified method of Bligh-Dyer extraction (E. G. Bligh and W. J. Dyer, Can. J. Med. Sci. 1959;37:911-917; and D. K. Perry, A. Bielawska and Y. A. Hannun, Methods Enzymol. 2000;312:22-31). A Micromass (Waters Corp., Milford, Mass.) Quattro Ultima tandem quadrupole mass spectrometer with a standard Z-spray™ ion source, set to electrospray positive ionization mode, with MassLynx™ version 3.5 operating software, was used for all quantitative determinations. […] The following ion transitions were used for quantification: sphingomyelin (704→184 m/z), sphinganine (302→284 m/z), ceramide (566→264 m/z) and psychosine (462→282 m/z) as an internal standard. […]
The liquid chromatography system was composed of twin Shimadzu (Columbia, Md.) LC-10ADvp HPLC pumps with a SCL-10Avp controller (flow rate 0.2 mL/minute), and a LEAP Technologies (Carrboro, N.C.) CTC PAL autosampler. For the quantitative method, the analytical column was a Phenomenex (Torrance, Calif.) Polar-RP (2.0×150 mm, 4 μm) with a MetaChem (Torrance, Calif.) MetaGuard Polaris C8 2.0 mm direct connect (5 μm) guard column. […]

CCCCCCC(=O)CCCCCC/C=C/C[C@@H](O)[C@H](O)[C@@](N)(CO)C(=O)O [myriocin]
liver SM levels decreased, maximum (0.1 mg/kg/day): 46% | liver SM levels (1 mg/kg/day): comparable to the non-treated group | plasma SM levels lowered (LC/MS) (1 mg/kg/day): 70%
